# Entries after “also recorded” stand apart in the source; their conditions may differ.
# What was measured:
# [1] = test system: male Swiss Webster mice, phenylquinone-induced writhing; test: Phenylquinone (PQ) writhing assay, % inhibition (Swiss Webster mice); type: in vivo; conditions: for inhibition at 30 mg/kg / % Inhibition of Writhing Response: 30 mg/kg orally in 1% methyl cellulose, 1 hour before PQ 2 mg/kg ip; for inhibition at 30 mg/kg: read-out: % Inhibition of Writhing Response
# Procedure: Test compounds were prepared as a suspension in 1% methyl cellulose and dosed orally at a dose of 30 mg/kg to male Swiss Webster mice weighing between 15 and 25 g with 10 mice per group. Test compounds was given 1 hour before the injection of phenylquinone. Phenylquinone (Sigma) was injected intraperitoneally at a dose of 2 mg/kg. After a 5 minute acclimation period, the number of writhes was counted for a 5 minute observation period for each mouse. The total number of writhes for each test compound was compared with a vehicle group. Results were expressed as % inhibition compared to the vehicle treated group means (Table VII).
# In related experiment, a dose response relationship was established for the compound of Example 1 using the same experimental protocl as above. […] This is shown graphically in FIG. 2.
# Rats (Sprague-Dawley) = test: Rat hot-plate assay (55° C.) for general analgesia; type: in vivo
# Procedure: The purpose of the experiment was to determine if the compound of Example 16 has significant general analgesic activity as opposed to the desired activity against neuropathic pain. Test compound, 1% methylcellulose as a vehicle and morphine sulfate as a positive standard were tested for analgesic activity using a rat hot-plate assay (55° C.) of Eddy and Leimbach (J. Pharmacol. Ep. Ther 107; 385-393 (1953)) to evaluate nociceptive responses.
# Rats (Sprague-Dawley, 217-227 g.) were used with 10 animals per group. Two pre-dose trials to nociceptive responses were determined before administration of compounds. Sixty minutes prior to testing, rats were dosed with either test compound (100 mg/kg, p.), as a suspension in 1% methylcellulose, or 1% methylcellulose as a vehicle ([…], p.). thirty minutes prior to testing, a third group was dosed with morphine sulfate (4.0 mg/kg, 2.0 ml/kg, sc) to test for nociceptive responses using a hot plate. Latency to rear paw licking response or jump response (1) was recorded using an electronic timer. The cut-off time for either response was 30 seconds. Statistical significance was assessed for paired groups using a Turkey test and between non-paired groups using Kruskal-Wallis test. A probability value of <0.05 was identified as statistically significant.
# [2] = test system: ICR derived male mice, phenylquinone-induced writhing; test: Phenylquinone (PQ) Writhing assay, number of writhes (MDS Panlabs, ICR mice); type: in vivo; conditions: for analgesia relative to vehicle control group (PQ writhing): 100, 30 and 10 mg/kg orally, P<0.01 for all 3 doses, Dunnett's test; for # Writhes (X + SEM): per os, 60 min before PQ 2 mg/kg ip, vehicle 20.8 ± 0.7, **P<0.01
# Procedure: The compounds of Example 20 and Example 16 administered orally at doses of 10, 30 and 100 mg/kg. Vehicle of 2% Tween 80 in distilled water was used.
# In this study, ICR derived male mice provided by animal breeding center of MDS Panlabs Taiwan, Ltd. were used. Space allocation for 10 animals was 45×23×15 cm. Mice were housed in APEC^R (Allentown Gaging, Allentown, N.J. 08501, U.S.A.) cages in a positive pressure isolation (NuAire^R, Mode: Nu-605, airflow velocity 50±5 ft/min, HEPA Filter) and maintained in a controlled temperature (22°-24° C.) and humidity (60%-80%) environment with 12 hour light dark cycles for at least one week in MDS Panlabs Taiwan laboratory prior to be used. Free access to standard lab chow for mice (Fwusow Industry Co., Limited, Taiwan) and tap water was granted. All aspects of this work including housing, experimentation and disposal of animals were performed in general accordance with the International Guiding Principles for Biomedical Research Involving Animals (CIOMS Publication No. ISBN 92 90360194, 1985).
# The method of Siegmund, E. et al., Proc. Soc. Exp. Biol. Med. 95: 729-731, 1957, “A method for evaluating both non-narcotic and narcotic analgesics” was used. One hour after vehicle or compound administration, the number of writhes was recorded for each mouse in groups of 10 animals during a 5 to 10 minute period following 2 mg/kg. 1.p. of phenylquinone.
# Groups of 10 male ICR mice weighing 22±2 gm were employed. Three doses (10, 30 and 100 mg/kg) of test substances suspended in a vehicle of 2% Tween 80 were administered per os. The control group received vehicle alone. […] The mean±SEM value of writhing number for each treatment group was then calculated and Dunnett's test was applied for comparison between vehicle and treated groups. Differences were considered significant when P<0.01.
# [3] = test system: Chronic constriction injury (CCI) rats; test: Bennett chronic constriction injury (CCI) mononeuropathy, cold allodynia assay; type: in vivo, Sparague Dawley rats
# Procedure: The peripheral mononeuropathy was induced by loose ligation of the sciatic nerve in anaesthetized rats. Ten days later, the nociceptive threshold was evaluated. The test compound is administered orally 1 hour prior to pain measurement. For comparison, a predose threshold was determined and a control experiment using 1% methyl cellulose was run. […] Animals were again tested 1-2 hrs post-dose. Predose and postdose average scores are determined.
# In a related experiment a dose-response relationship for the compound of Example 20 was determined using the same experimental protocol. […] Animals were again tested 1 hr post-dose.
# [4] = test system: Rats, Type II collagen assay; test: Hargreaves test (withdrawal latency to heat) in Type II collagen assay; type: in vivo; conditions: rats Day 20 of Type II collagen assay
# Procedure: The compound of Example 20 was further tested in a Hargreaves test, another accepted model for neuropathic pain.
# Rats were tested on Day 20 in Type II collagen assay. […] Two hours after the 1st dose of drug on Day 20, animals were placed on a Hargreaves apparatus glass table. A high intensity light was placed under the one hind paw and illuminated, thus creating heat. At the same time, a clock was started. The light turned off, and the clock simultaneously stopped when the animal removed the paw. The time the rat is able to withstand the hear is considered withdrawal latency.
compound,measurement,setting,value
"CC(=O)Oc1c(C(C)(C)C)cc(/C=[N+](\[O-])C(C)(C)C)cc1C(C)(C)C [Example 1, α-(4-Acetoxy-3,5-di-tert-butylphenyl)-N-tert-butylnitrone]",inhibition at 30 mg/kg,[1]; Mus musculus,65%
same,ED50,"[1]; Mus musculus, dose response, oral, mice",2.7 mg/kg
"CCC(=O)Oc1c(C(C)(C)C)cc(/C=[N+](\[O-])C(C)(C)C)cc1C(C)(C)C [Example 8, α-(4-propionyloxy-3,5-di-tert-butylphenyl)-N-tert-butylnitrone]",melting point,,202 to 222 °C
"CC(=O)Oc1c(C(C)(C)C)cc(/C=[N+](/C)[O-])cc1C(C)(C)C [Example 9, α-(4-acetoxy-3,5-di-tert-butylphenyl)-N-methylnitrone]",melting point,,136 to 143 °C
"COCOc1c(C(C)(C)C)cc(/C=[N+](\[O-])C(C)(C)C)cc1C(C)(C)C [Example 16, α-(4-Methoxymethoxy-3,5-di-tert-butylphenyl)-N-tert-butylnitrone]",effect on hot-plate latency compared with pre-dose,"Rats (Sprague-Dawley); 100 mg/kg orally, sixty minutes prior to testing",did not significantly affect
same,"hot-plate latency, post-dose (mean±SEM)","Rats (Sprague-Dawley); 100 mg/kg orally, sixty minutes prior to testing, pre-dose 7.9±1.0 seconds",9.7 ± 1.0 s
same,analgesia relative to vehicle control group (PQ writhing),[2],significant
same,# Writhes (X + SEM),[2]; Dose 30 mg/kg,3.9 ± 1.3**
same,# Writhes (X + SEM),[2]; Dose 10 ml/kg as printed,14.9 ± 1.2**
same,# Writhes (X + SEM),[2]; Dose 100 ml/kg as printed,1.3 ± 0.6**
same,"effectiveness in cold stimulus latency, Bennett CCI model","[3]; 100 mg/kg, p.o., tested 1-2 hrs post-dose, FIG. 3",effective
"CC(C)(C)c1cc(C=[N+]([O-])C(C)(C)C)cc(C(C)(C)C)c1O [Example 20, α-(4-hydroxy-3,5-di-tert-butylphenyl)-N-tert-butylnitrone]",inhibition at 30 mg/kg,[1]; Mus musculus,62%
same,ED50,"[4]; Rattus norvegicus, po, two hours after dose",6.25 mg/kg
same,activity in Hargreaves test (withdrawal latency),"[4]; doses of 10-100 mg/kg, FIG. 5",Significant activity; also recorded: does exhibit activity
same,analgesia relative to vehicle control group (PQ writhing),[2],significant
same,# Writhes (X + SEM),[2]; Dose 30 mg/kg,0.9 ± 0.5**
same,# Writhes (X + SEM),[2]; Dose 10 ml/kg as printed,3.1 ± 1.4**
same,# Writhes (X + SEM),[2]; Dose 100 ml/kg as printed,0.3 ± 0.2**
same,"postdose latency score over vehicle, cold allodynia","[3]; 30 mg/kg p.o., 1 hr post-dose, p<0.05 vs. vehicle postdose",significant postdose latency score over vehicle
same,"postdose latency score over vehicle, cold allodynia","[3]; 100 mg/kg p.o., 1 hr post-dose, p<0.01 vs. vehicle postdose",significant postdose latency score over vehicle
same,latency in the cold allodynia assay,"[3]; various doses (10, 30, 100 mg/kg, p.o.), 1 hr post-dose, FIG. 4",increased latency
"CC(C)(C)CC(C)(C)[N+]([O-])=Cc1cc(C(C)(C)C)c(O)c(C(C)(C)C)c1 [Example 21, α-(4-hydroxy-3,5-di-tert-butylphenyl)-N-tert-octylnitrone]",melting point,,113 to 115 °C
same,inhibition at 30 mg/kg,[1]; Mus musculus,30%
"CCCCCC[N+]([O-])=Cc1cc(C)c(O)c(C)c1 [Example 23, a-(4-hydroxy-3,5-dimethylphenyl)-N-hexylnitrone]",% Inhibition of Writhing Response,[1],47%
same,activity in PQ writhing model,"[1]; mice, oral",Significant activity
"CC(C)(C)c1cc(C=[N+]([O-])C(C)(C)CO)cc(C(C)(C)C)c1O [Example 25, a-(4-hydroxy-3,5-di-tert-butylphenyl)-N-(1,1-dimethyl-2-hydroxyethyl)nitrone]",% Inhibition of Writhing Response,[1],30%
same,activity in PQ writhing model,"[1]; mice, oral",Significant activity
"CCC(C)(C)[N+]([O-])=Cc1cc(C(C)(C)C)c(O)c(C(C)(C)C)c1 [Example 26, a-(4-hydroxy-3,5-di-tert-butylphenyl)-N-(1,1-dimethylpropyl)nitrone]",% Inhibition of Writhing Response,[1],48%
"CC(C)[N+]([O-])=Cc1cc(C(C)(C)C)c(O)c(C(C)(C)C)c1 [Example 27, a-(4-hydroxy-3,5-di-tert-butylphenyl)-N-(1-methylethyl)nitrone]",% Inhibition of Writhing Response,[1],30%
"CC(C)(C)c1cc(C=[N+]([O-])Cc2ccccc2)cc(C(C)(C)C)c1O [Example 28, a-(4-hydroxy-3,5-di-tert-butylphenyl)-N-benzylnitrone]",% Inhibition of Writhing Response,[1],45%
"COCOc1c(C(C)(C)C)cc(C=[N+]([O-])CC2CCCCC2)cc1C(C)(C)C [Example 29, α-(4-methoxymethoxy-3,5-di-tert-butylphenyl)-N-cyclohexylmethylnitrone]",melting point,,143.1 °C
"COCOc1c(C(C)(C)C)cc(/C=[N+](\[O-])Cc2ccccc2)cc1C(C)(C)C [Example 31, α-(4-methoxymethoxy-3,5-di-tert-butylphenyl)-N-benzylnitrone]",melting point,,134.2 °C
"COc1c(C(C)(C)C)cc(/C=[N+](\[O-])C(C)(C)C)cc1C(C)(C)C [Example 32, α-(4-methoxy-3,5-di-tert-butylphenyl)-N-tert-butylnitrone]",melting point,,223.1 °C
same,inhibition at 30 mg/kg,[1]; Mus musculus,38%
"CCOc1c(C(C)(C)C)cc(/C=[N+](\[O-])C(C)(C)C)cc1C(C)(C)C [Example 33, α-(4-ethoxy-3,5-di-tert-butylphenyl)-N-tert-butylnitrone]",melting point,,212.1 °C
same,inhibition at 30 mg/kg,[1]; Mus musculus,4%
"CCOC(=O)COc1c(C(C)(C)C)cc(C=[N+]([O-])C(C)(C)C)cc1C(C)(C)C [Example 34, α-(4-carbethoxymethoxy-3,5-di-tert-butylphenyl)-N-tert-butylnitrone]",melting point,,188 °C
"CN1CC[C@]23c4c5ccc(O)c4O[C@H]2[C@@H](O)C=C[C@H]3[C@H]1C5.O=S(=O)(O)O [morphine sulfate, reference compound]",effect on hot-plate mean latency compared with pre-dose,"Rats (Sprague-Dawley); 4.0 mg/kg sc, thirty minutes prior to testing",significantly increased
same,"hot-plate mean latency to jump/hind paw licking response, post-dose (mean±SEM)","Rats (Sprague-Dawley); 4.0 mg/kg sc, thirty minutes prior to testing, pre-dose 9.9±1.0 seconds, P<0.001",24.3 ± 2.3 s
"a-(4-hydroxy-3,5-dimethoxyphenyl)-N-tert-butylnitrone [Example 22]",% Inhibition of Writhing Response,[1],32%
"a-(4-hydroxy-3,5-dimethylphenyl)-N-tert-butylnitrone [Example 24]",% Inhibition of Writhing Response,[1],23%
"α-(4-Isobutanoyl-3,5-di-tert-butylphenyl)-N-tert-butylnitrone [Example 2]",% Inhibition of Writhing Response,[1],29%
"α-(4-n-Butanoyl-3,5-di-tert-butylphenyl)-N-tert-butylnitrone [Example 3]",% Inhibition of Writhing Response,[1],62%

# Source: patent US6835754B2, “Use of aryl nitrone compounds in methods for treating neuropathic pain” (Renovis, Inc., priority 2001, dated 2004)
